Measurements taken from US9210928B2, “Plant development control composition” (Syngenta Crop Protection, LLC, priority 2008, dated 2015).
Entries after “also recorded” stand apart in the source; their conditions may differ.

Legend:
[1] = biological target: T1, MmBCO2 (Mus musculus, UniProt Q99NF1); test: In vivo enzyme assay in β-carotene-producing E. coli expressing MmBCO2; type: cell-based; conditions: 100 μM inhibitor, 16 hours; FIG. 4
T1 construct: All genes were full length except AtCCD7; expressed in transfected cells; host or cells: E. coli BL21(DE3) harbouring pAC-BETA
T1 sequence (Q99NF1 1-532): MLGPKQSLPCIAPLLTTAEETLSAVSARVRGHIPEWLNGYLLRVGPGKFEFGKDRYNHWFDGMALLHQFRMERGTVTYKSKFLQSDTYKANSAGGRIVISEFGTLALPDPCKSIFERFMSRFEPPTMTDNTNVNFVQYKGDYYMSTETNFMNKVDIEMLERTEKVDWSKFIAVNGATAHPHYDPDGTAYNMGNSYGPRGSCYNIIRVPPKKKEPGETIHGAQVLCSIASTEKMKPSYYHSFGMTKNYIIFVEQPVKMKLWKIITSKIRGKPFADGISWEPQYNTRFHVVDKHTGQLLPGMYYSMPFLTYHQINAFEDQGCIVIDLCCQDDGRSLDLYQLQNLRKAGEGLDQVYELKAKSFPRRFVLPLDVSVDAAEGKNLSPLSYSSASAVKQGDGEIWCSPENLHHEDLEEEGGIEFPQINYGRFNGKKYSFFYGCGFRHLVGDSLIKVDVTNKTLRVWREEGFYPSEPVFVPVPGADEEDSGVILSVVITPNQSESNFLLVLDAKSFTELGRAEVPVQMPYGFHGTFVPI
Source text: In vivo enzyme assays in E. coli—The genes of interest (supplemental Table S1) were cloned into the vector pET30c (Novagen) fused directly to the initial ATG codon with no tag, or into pGEX-4T such that the gene was fused to an N-terminal GST tag. All genes were full length except AtCCD7, which had the chloroplast signal sequence removed (supplemental methods). […] Therefore, this construct was used in subsequent assays. The plasmids were transferred to the E. coli expression strain BL21(DE3), harbouring pAC-BETA (38), and therefore producing β-carotene.
For each inhibitor assay, 2.5 ml LB media with the appropriate antibiotics (25 μg ml^−1 chloramphenicol and 50 μg ml^−1 kanamycin or 100 μg ml^−1 ampicillin) and 2.5 μM IPTG, was prepared. […] The supernatant was removed and the O.D.453-O.D.550 was measured. The amount of β-carotene was calculated using a standard curve generated from a dilution series of β-carotene (Sigma) in ethanol with 0.2% Triton X-100; the absolute levels of β-carotene are shown in FIG. 8. The relative inhibition was calculated by the equation: (Ci−Cc)/(C1−Cc)×100, where Ci is the carotenoid level with inhibitor and CCD present, Cc is the level with CCD but without the inhibitor and C1 is the level in a strain where lacZ is expressed instead of the CCD, and no inhibitor is present. […]

[2] = tested on: whole Arabidopsis plants; test: Shoot branching in whole Arabidopsis plants grown in agar; type: in vivo; conditions: applied to whole plants
Method: Branching phenotypes of Arabidopsis plants grown in agar media for 45 days supplemented with inhibitor D6. Images are shown: (a) Col-0 (WT) without inhibitor; (b) max3-9 mutant without inhibitor; (c) Col-0 with 100 μM D6. The numbers (d) of rosette branches were quantified. Error bars represent standard error of the mean, n=6 to 12.
Stimulation of shoot branching in whole Arabidopsis plants—Inhibitors were also applied to Arabidopsis whole plants grown under sterile conditions in agar. […] Inhibitor treated plants were intermediate (mean of approximately 2 branches) and so partially mimicked max3-9 (FIG. 6d).

For `COc1ccc(C(=O)N(O)Cc2ccc(F)cc2)cc1` [Compound F2, N-(4-fluorobenzyl)-4-methoxybenzoyl hydroxamic acid], the “relative inhibition of MmBCO2 in E. coli (in words)” value [1] was “most effective compounds at inhibiting MmBCO2; also recorded: high inhibitory activity” and the “unintended effects on whole Arabidopsis plants” value [2] was “caused bleaching of leaves”.
With `COc1ccc(C(=O)N(O)Cc2ccccc2)cc1` [Compound F1, N-benzyl-4-methoxybenzoyl hydroxamic acid] the “relative inhibition of MmBCO2 in E. coli (in words)” value [1] was “most effective compounds at inhibiting MmBCO2; also recorded: high inhibitory activity” and the “unintended effects on whole Arabidopsis plants” value [2] was “caused bleaching of leaves”.
